The subject of experiment [1] is tibialis anterior (TA) muscle. Description: Intramuscular dmPGE2 after cardiotoxin injury of TA, histology (PAX7, myofiber CSA). Format: in vivo, mouse. The protocol:
We used an injury model entailing intramuscular injection of 10 μl of notexin (10 μg ml^−1; Latoxan) or cardiotoxin (10 μM; Latoxan) into the TA muscle. For cryoinjury, an incision was made in the skin overlying the TA muscle and a copper probe, chilled in liquid nitrogen, was applied to the TA muscle for three 10 s intervals, allowing the muscle to thaw between each application of the cryoprobe. When indicated, 48 hr after injury either 16,16-Dimethyl Prostaglandin E2 (dmPGE2) (13 nmol, Tocris, catalog #4027) or vehicle control (PBS) was injected into the TA muscle. The contralateral TA was used as an internal control. We collected tissues 14 days post-injury for analysis.
We collected and prepared recipient TA muscle tissues for histology as previously described^5,6. We incubated transverse sections with anti-LAMININ (Millipore, clone A5, catalog #05-206, 1:200), and anti-PAX7 (Santa Cruz Biotechnology, catalog #sc-81648, 1:50) primary antibodies and then with AlexaFluor secondary Antibodies (Jackson ImmunoResearch Laboratories, 1:200). We counterstained nuclei with DAPI (Invitrogen). We acquired images with an AxioPlan2 epifluorescent microscope (Carl Zeiss Microimaging) with Plan NeoFluar 10×/0.30NA or 20×/0.75NA objectives (Carl Zeiss) and an ORCA-ER digital camera (Hamamatsu Photonics) controlled by the SlideBook (3i) software. The images were cropped using Adobe Photoshop with consistent contrast adjustments across all images from the same experiment. The image composites were generated using Adobe Illustrator. We analyzed the number of PAX7 positive cells using the MetaMorph Image Analysis software (Molecular Devices), and the fiber area using the Baxter Algorithms for Myofiber Analysis that identified the fibers and segmented the fibers in the image to analyze the area of each fiber. For PAX7 quantification we examined serial sections spanning a depth of at least 2 mm of the TA. For fiber area at least 10 fields of LAMININ-stained myofiber cross-sections encompassing over 400 myofibers were captured for each mouse as above. Data analyses were blinded. The researchers performing the imaging acquisition and scoring were unaware of treatment condition given to sample groups analyzed.

For experiment [2], the system named is gastrocnemius (GA) muscle. The experiment can be described thus: In vivo muscle force after downhill treadmill run, aged mice (Example 1). Conditions: dmPGE2 daily 5 days in week 1, force at week 5. Further details: species or system mouse. As to the method:
Aged mice (18 mo.) were subjected to downhill treadmill run for 2 consecutive weeks. During week 1, mice ran daily for 5 days and rested on days 6 and 7. Two hours after each treadmill run during week 1, each (lateral and medial) gastrocnemius (GA) muscle from both legs of each mouse was injected with a dose of either PBS (vehicle control) or 13 nM dmPGE2 (experimental group). During week 2, mice were subjected to 5 days treadmill run only. The treadmill run was performed using the Exer3/6 (Columbus Instruments). Mice ran for 10 minutes on the treadmill at 20 degrees downhill, starting at a speed of 7 meters/min. After 3 min, the speed was increased by 1 meter/min to a final speed of 14 meter/min. […] Force measurements were on the GA muscles at week 5 based on a protocol published previously^5. […] Data were collected with a PCI-6251 acquisition card (National Instruments) and analyzed in Matlab. We calculated specific force values by normalizing the force measurements by the muscle physiological cross-sectional areas (PCSAs), which were similar between the control and the experimental PGE2 treated group (Table 2). PCSA (measured in mm^2) was calculated according to the following equation^12: PCSA (mm^2)=[mass (g)×Cos θ]÷[ρ(g/mm^3)×fiber length (mm)], where θ is pennation angle of the fiber and ρ is muscle density (0.001056 g/mm^3). […]

In experiment [3] the test system is MuSCs. The experiment can be described thus: MuSC transplantation into injured TA muscle, engraftment by bioluminescence imaging. Format: in vivo, mouse.
A further experiment deals with endogenous MuSCs. The experiment can be described thus: Endogenous MuSCs by Pax7-luciferase BLI after cardiotoxin injury. Format: in vivo, mouse. As to the method:
We performed bioluminescence imaging (BLI) using a Xenogen-100 system, as previously described^1,5,6. Briefly, we anesthetized mice using isofluorane inhalation and administered 120 μL D-luciferin (0.1 mmol kg^−1, reconstituted in PBS; Caliper LifeSciences) by intraperitoneal injection. We acquired BLI using a 60 s exposure at F-stop=1.0 at 5 minutes after luciferin injection. Digital images were recorded and analyzed using Living Image software (Caliper LifeSciences). We analyzed images with a consistent region-of-interest (ROI) placed over each hindlimb to calculate a bioluminescence signal. We calculated a bioluminescence signal in radiance (p s^−1 cm^−2 sr^−1) value of 10^4 to define an engraftment threshold. This radiance threshold of 10^4 is approximately equivalent to the total flux threshold in p/s reported previously. This BLI threshold corresponds to the histological detection of one or more GFP+ myofibers^1,5,6. We performed BLI imaging every week after transplantation.
For Pax7^CreERT2; Rosa26-LSL-Luc mice experiments, we treated mice with five consecutive daily intraperitoneal injections of tamoxifen to activate luciferase expression under the control of the Pax7 promoter. A week after the last tamoxifen injection, mice were subjected to intramuscular injection of 10 μl of cardiotoxin (10 μM; Latoxan), which we designated as day 0 of the assay. […]

For experiment [4], the system named is hematopoietic, liver, and colon tissues. The following applies: delivery of 15-PGDH inhibitor; cited from earlier work.
The test system of the next experiment is aged MuSCs. Description: Aged MuSC numbers after acute 24 hr treatment, hydrogel culture. Type of experiment: cell-based, mouse. Conditions: 1-day pulse; PGE2 10 ng/ml or SW033291 1 μM; assayed day 7. As to the method:
(§1) Following isolation, we resuspended MuSCs in myogenic cell culture medium containing DMEM/F10 (50:50), 15% FBS, 2.5 ng ml^−1 fibroblast growth factor-2 (FGF-2 also known as bFGF) and 1% penicillin-streptomycin. We seeded MuSC suspensions at a density of 500 cells per cm^2 surface area. We maintained cell cultures at 37° C. in 5% CO2 and changed medium daily. […]
(§2) To assay proliferation, we used three different assays (hemocytometer, VisionBlue, and EdU). […] For hemocytometer cell number count, we collected cells at indicated timepoints by incubation with 0.5% trypsin in PBS for 5 min at 37° C. and quantified them using a hemocytometer at least 3 times. Additionally, we used the VisionBlue Quick Cell Viability Fluorometric Assay Kit (BioVision, catalog #K303) as a readout for cell growth in culture. Briefly, we incubated MuSCs with 10% VisionBlue in culture medium for 3 h, and measured fluorescence intensity on a fluorescence plate reader (Infinite M1000 PRO, Tecan) at Ex=530-570 nm, Em=590-620 nm. […] We quantified EdU positive cells using the MetaMorph Image Analysis software (Molecular Devices). Data analyses were blinded, where researchers performing cell scoring were unaware of the treatment condition given to sample groups analyzed.

Experiment [5] deals with MuSCs. The experiment can be described thus: Quantitative RT-PCR of MuSC transcripts. Type of experiment: cell-based, mouse. Conditions: aged MuSCs, 1-day pulse. The source says:
We isolated RNA from MuSCs using the RNeasy Micro Kit (Qiagen). For muscle samples, we snap froze the tissue in liquid nitrogen, homogenized the tissues using a mortar and pestle, followed by syringe and needle trituration, and then isolated RNA using Trizol (Invitrogen). We reverse-transcribed cDNA from total mRNA from each sample using the SensiFAST™ cDNA Synthesis Kit (Bioline). We subjected cDNA to RT-PCR using SYBR Green PCR Master Mix (Applied Biosystems) or TaqMan Assays (Applied Biosystems) in an ABI 7900HT Real-Time PCR System (Applied Biosystems). We cycled samples at 95° C. for 10 min and then 40 cycles at 95° C. for 15 s and 60° C. for 1 min. To quantify relative transcript levels, we used 2-ΔΔCt to compare treated and untreated samples and expressed the results relative to Gapdh. For SYBR Green qRT-PCR, we used the following primer sequences: Gapdh. forward 5′-[…]-3′ (SEQ ID NO: 1), reverse 5′-CCCTTTTGGCTCCACCCT-3′ (SEQ ID NO: 2); Hpgd, forward 5′-[…]-3′ (SEQ ID NO: 3), reverse 5′-[…]-3′ (SEQ ID NO: 4); Ptges, forward 5′-GCTGTCATCACAGGCCAGA-3′ (SEQ ID NO: 5), reverse 5′-[…]-3′ (SEQ ID NO: 6); Ptges2, forward 5′-[…]-3′ (SEQ ID NO: 7), reverse 5′-[…]-3′ (SEQ ID NO: 8); Ptger1, forward 5′ GTGGTGTCGTGCATCTGCT-3′ (SEQ ID NO: 9), reverse, 5′ […]-3′ (SEQ ID NO: 10), and Ptger2, forward 5′-[…]-3′ (SEQ ID NO: 11), reverse 5′-[…]-3′ (SEQ ID NO: 12). TaqMan Assays (Applied Biosystems) were used to quantify Pax7. Myogenin. Slco2a1 (PGT), Ptger3 and Ptger4 in samples according to the manufacturer instructions with the TaqMan Universal PCR Master Mix reagent kit (Applied Biosystems). Transcript levels were expressed relative to Gapdh levels. For SYBR Green qPCR, Gapdh qPCR was used to normalize input cDNA samples. For Taqman qPCR, multiplex qPCR enabled target signals (FAM) to be normalized individually by their internal Gapdh signals (VIC).

In experiment [6] the test system is MuSCs. Description: Young MuSC numbers after acute PGE2 treatment, hydrogel culture (hemocytometer count). Type of experiment: cell-based, mouse. Conditions: ONO-AE3-208 1 μM, PGE2 10 ng/ml, 24 hr. The protocol:
as §1, §2

In the next experiment the test system is Tibialis anterior (TA). The experiment can be described thus: Muscle twitch force after injury and indomethacin injection. Format: in vivo, mouse. The following applies: day 14 post-injury, indomethacin into cardiotoxin-injured muscles.

The values that follow come from patent US11969433B2, “Compositions and methods for muscle regeneration using prostaglandin E2” (The Board of Trustees of the Leland Stanford Junior …, priority 2016, dated 2024).

`CCCCC(C)(C)[C@H](O)/C=C/[C@H]1[C@H](O)CC(=O)[C@@H]1C/C=C\CCCC(=O)O` [dmPGE2, 16,16-dimethyl prostaglandin E2]: the myofiber sizes result in [1] (aged mice, fourteen days post-injury) is on record as “increase”. In addition, the “increase in the number of endogenous MuSCs” value in experiment [1] (aged mice, fourteen days post-injury, single dmPGE2 injection) is listed as 24±2%. In addition, the “distribution of myofibers (cross-sectional area)” value in experiment [1] (young mice, day 14 post injury) was “shifted toward larger sizes”. The “increase in endogenous PAX7-expressing MuSCs” value in experiment [1] (young mice, fourteen days post cardiotoxin injury, single dmPGE2 bolus) is listed as 60+15%. Moreover, the “effect on endogenous MuSCs in the absence of injury” value in experiment [1] (young mice, no injury) is reported as “no effect”. Besides, in [2], the specific tetanic force result was “significantly increased” and the specific twitch force result is “significantly increased”. For the same compound, in the experiment on MuSCs [3] (aged MuSCs (250 cells) coinjected with dmPGE2), the “engraftment of aged MuSCs relative to controls” value is “significantly enhanced”. The “engraftment of young MuSCs relative to controls” value in the experiment on MuSCs [3] (freshly sorted young MuSCs (250 cells) coinjected with 13 nmol dmPGE2) is “significantly enhanced”. Also, in the experiment on endogenous MuSCs (dmPGE2 3 days after cardiotoxin injury), the “endogenous MuSCs assayed by Pax7-luciferase BLI” value is reported as “Increase”.

As for `CCCC[S+]([O-])c1sc2nc(-c3cccs3)cc(-c3ccccc3)c2c1N` (stereo not shown) [SW033291], the “regeneration of hematopoietic, liver, and colon tissues” value in experiment [4] was “enhance regeneration”. Moreover, in the experiment on aged MuSCs, the “proliferation of aged MuSCs” value is “increase”. Besides, the “Pax7 expression in aged MuSCs” value in the experiment with MuSCs [5] is given as “maintenance”.

As for `CC(C(=O)Nc1cc(C#N)ccc1CCCC(=O)O)c1ccc(F)c2ccccc12` (stereo not shown) [ONO-AE3-208], in the experiment on MuSCs [6], the “proliferation induced by PGE2 in presence of EP4 antagonist” value is given as “blunted”.

In the case of `COc1ccc2c(c1)c(CC(=O)O)c(C)n2C(=O)c1ccc(Cl)cc1` [indomethacin], in the experiment on Tibialis anterior (TA), the “Twitch force compared to control group” value is reported as “significant loss”. In the experiment on endogenous MuSCs (indomethacin injected three days post-cardiotoxin injury), the “luciferase activity (muscle stem cell activation)” value is on record as “significant decrease”.
